# Reference: patent US20220079915A1, “IMMUNOSUPPRESSIVE PHARMACEUTICAL COMPOSITION AND APPLICATION THEREOF” (Shanghai Archeus Biotech Co., Ltd., priority 2018, published 2022)
# Where two headings read alike, the source gives them in different places.
# Assays:
# [1] = tested on: IL-17A; test: IL-17A secretion of mouse spleen Naïve CD4+ T cells induced to differentiate to Th17 cells by cytokines, ELISA; assay type: cell-based
# Description: 1) Pre-coated the 96-well plate with 2 μg/mL anti-mouse CD3e and incubated overnight at 4 degrees Celsius: 2) Separated fresh spleens from adult C57BL/6 female mice (8-12 weeks old), ground and filtered through a […] nylon cell strainer to obtain a single cell suspension in pre-cooled DPBS; 3) Washed the spleen cells again with DPBS, and resuspended in RoboSep™ buffer at a density of 1×10^8/mL; 4) Separated primary CD4+ T cells with mouse primary CD4+ T cell isolation kit as required by the kit; 5) Resuspended the isolated CD4+ T cells in complete medium (RPMI 1640 medium+10% inactivated FBS+1% double antibiotics) at a density of 1×10^6/mL; 6) Washed the 96-well plate pre-coated with anti-mouse CD3e twice with DPBS, added 50 μL of cytokine cocktail, the composition and final concentration of which are shown in Table 6 below, and then added 50 μL of compound solution (the final concentration of DMSO was 0.1%). Added 100 μL of cell suspension to each well to allow the final cell number per well to be 1×10^5/100 μL; [table] 7) Cultured the cells for 7 days under the above conditions. The culture conditions were 37 degrees Celsius, 5% CO2 concentration; 8) After 7 days, added 1× stimulation cocktail (eBioscience 500X) to the culture medium for 4 hours, and then collected cell culture supernatant for detection with IL-17A enzyme-linked immunoassay kit; 9) Completed the detection of supernatant IL-17A concentration with mouse IL-17 DuoSet ELISA kit; 10) Read the OD450 nm absorbance value with a microplate reader, and generated the standard curve by using the 4-parameter logistic fitting (4-PL) method. 1) Diluted the capture antibody (provided in the kit) to a working concentration in PBS without carrier protein, that is, a 96-well plate can be coated with 100 microliters per well. Sealed and incubated the plate overnight at room temperature; 2) Aspirated the coating buffer of the well plate, and eluted with 400 microliters of eluent (provided in the kit) for three times, aspirating as much liquid as possible each time; 3) Added 300 microliters of diluent (provided in the kit) to each well, and equilibrated for 1 hour at room temperature; 4) Eluted the well plate as in the above step 2) to be ready for the addition of sample; ) Added 100 microliters of sample or standard to each well containing the added diluent, and sealed and incubated the well plate for 2 hours at room temperature; 6) Eluted the well plate as in the above step 2); 7) Added 100 microliters of detector antibody (provided in the kit) to each well, and sealed and incubated the well plate for 2 hours at room temperature. 8) Eluted the well plate as in the above step 2); 9) Added 100 microliters of Streptavidin-HRP working solution (provided in the kit) to each well, and sealed and incubated the well plate in dark for 20 minutes at room temperature. 10) Eluted the well plate as in the above step 2); 11) Added 100 microliters of reaction substrate solution (provided in the kit) to each well, and incubated at room temperature for 20 minutes, protected from light: 12) Added 50 microliters of stop solution (provided in the kit) to each well, and tapped the well plate to ensure that the liquid is evenly mixed; 13) Detected the optical density value of each well at […]. The values could be corrected by deducting the values at 540 nm or 570 nm.
# [2] = tested on: TNF-α; test: LPS-induced TNF-α secretion in THP-1 cells, ELISA of culture supernatant; assay type: cell-based, human; details: for TNF-α level, % of the positive control / TNF-α, % of the positive control level: 100 ng/mL LPS; for inhibition at 10 µM: Homo sapiens, THP-1; for TNF-α treatment value, A: relative to control, 5 μM
# Description: 1) Recoveried and expanded THP-1 cells in a T75 culture flask. The growth medium was 10 milliliters of 10% fetal bovine serun/RPMI1640 (already containing 2 mM glutamine)/1% double antibiotics in each flask. Observed the cells under an invert microscope, and, when the cells were in the logarithmic growth phase, started the following drug treatment experiments; 2) Cultured 2*10e5/mL THP-1 cells in a 96-well culture plate with 100 microliters of growth medium (10% fetal bovine serum/RPMI640/1% double antibiotics) per well, and added 100 ng/ml PMA to incubate for 24 hour; 3) Eluted the non-adherent cells once with 300 microliters of fresh growth medium of 10% fetal bovine serum/RPMI1640/1% double antibiotics; 4) Added 200 microliters of growth medium of 10% fetal bovine serum/RPMI1640/1% double antibiotics, with/without test compound, to pre-incubate the cells at 37° C. for 2 hours; 5) Then added 100 ng/mL lipopolysaccharide (LPS) and incubated at 37° C. for 4 hours: 6) Collected 50 microliters of cell culture supernatant for the detection of the levels of related cytokines by enzyme-linked immunoassay, or stored it in a refrigerator at minus 80 degrees Celsius for future detection; 1) Prepared 1× elution buffer for enzyme-linked immunoassay. Prepared it with ultrapure water: 10× elution buffer mother solution=9:1 in volume ratio for use; 2) Prepared the antibody cocktail for enzyme-linked immunoassay. Prepared it with the antibody diluent (provided by Ab221825):antibody 1:antibody 2=18:1:1 in volume ratio for use. Antibody 1 was a TNF-α capture antibody and Antibody 2 was a TNF-α detector antibody. They were all supplied by kit Ab221825; 3) Prepared a series of concentration gradient samples of TNF-α standard with ultrapure water for the plotting of reaction standard curve and determining the linear range of detection signal; 4) Added 50 microliters of cell culture supernatant/standard and 50 microliters of the above antibody cocktail to a 96-well plate used for enzymatic reaction, sealed it with a film, placed it on a horizontal shaker, and incubated at 400 rpm for 1 hour at room temperature to allow the antibody-antigen complex was fully bound and coupled at the bottom of the well plate; 5) Discarded the supernatant, eluted with 350 microliters of 1× elution buffer/well for 3 times. In the last elution, put the well plate upside down on an absorbent paper and sucked and washed it thoroughly; 6) Added 100 microliters of TMB substrate solution (supplied by Ab221825) to each well, placed them on a horizontal shaker and incubated in the dark at room temperature for 5 minutes at a speed of 400 rpm; 7) Added 100 microliters of reaction stop solution (provided by Ab221825), placed on a horizontal shaker and mix at 400 rpm for 1 minute; 8) Detected the absorbance at 450 nm with a microplate reader.
smiles,measurement,setting,value
C=C[C@@]1(C)CC(=O)C2(O)[C@@]3(C)C(O)CCC(C)(C)C3[C@H](OC(=O)CCN(C)C)[C@H](OC(C)=O)[C@@]2(C)O1.Cl (stereo partly shown) [6-[3-(dimethylamino)propionyl]forskolin hydrochloride],"IL-17A level, % of the positive control",[1]; 0.5 μM alone,88%
same,reduction in IL-17A levels,[1]; 0.5 μM used alone,12%
same,"IL-17A level, % of the positive control",[1]; 1 μM alone,19%
same,"IL-17A, % of the basic level","[1]; 1 μM compound alone, FIG. 10",18%
same,inhibition at 10 µM,"[1]; Mus musculus, CD4+ T, 168 h, 10 μM, 7 days cytokine induction, FIG. 8, read-out: inhibition of the positive control IL-17A level",~97%
same,inhibition at 1 µM,"[1]; Mus musculus, CD4+ T, 1 μM alone, FIG. 10, read-out: reduction in IL-17A levels (inhibitory effect)",81%
same,"IL-17A treatment value, A","[1]; Table 7, relative to control, 0.5 μM",88%
same,"IL17-A treatment value, A","[1]; Table 8, relative to control, 0.5 μM",88%
same,"TNF-α level, % of the positive control","[2]; 5 μM alone, FIG. 4",33%
same,"TNF-α, % of the positive control level","[2]; 5 μM alone, FIG. 6",58%
same,reduction in TNF-α levels,"[2]; 5 μM alone, FIG. 6",42%
same,reduction in TNF-α level,"[2]; 5 μM used alone, FIG. 4",67%
same,"TNF-α level, % of the positive control","[2]; 10 μM alone, FIG. 4",27%
same,"TNF-α, % of the positive control level","[2]; 10 μM alone, FIG. 6",44%
same,reduction in TNF-α level (inhibitory effect),"[2]; 10 μM used alone, FIG. 4",73%
same,inhibition at 10 µM,"[2]; 10 μM alone, FIG. 6, read-out: reduction in TNF-α levels (inhibitory effect)",56%
same,inhibition at 10 µM,"[2]; 10 μM, 100 ng/ml LPS 4 hours, FIG. 1, read-out: inhibition of the TNF-α level of the positive control",~75%
same,"TNF-α treatment value, A",[2]; Table 3,33%
same,"TNF-α treatment value, A",[2]; Table 4,58%
